From patent US12180178B2, “Heteroaryl azole compound and pest control agent” (NIPPON SODA CO., LTD., priority 2018, dated 2024)
Like-named read-outs stand apart in the source and are kept apart here.

Key:
Type in all cases: in vivo
Mythimna separata = assay: Test of Efficacy on Mythimna separata (test feed); conditions: 1 μl of emulsion (I) (5% active ingredient) in 0.8 g artificial feed; second instar larvae; 25° C.; fifth day
Experimental: 5 parts of the heteroaryl azole compound of the present invention, 93.6 parts of dimethylformamide, and 1.4 parts of polyoxyethylene alkyl aryl ether were mixed and dissolved to prepare emulsion (I) containing 5% of the active ingredient. For a control, 98.5 parts of dimethylformamide and 1.5 parts of polyoxyethylene alkyl aryl ether were mixed and dissolved to prepare emulsion (II). An insecticidal rate was calculated according to the following expression: Insecticidal rate (%)=(The number of dead insects/The number of tested insects)×100 0.8 g of commercially available artificial feed (Insecta LFS, manufactured by Nosan Corp.) and 1 μl of the emulsion (I) were well mixed to obtain test feed. A plastic test container (capacity: 1.4 ml) was packed with 0.2 g of the test feed per treatment plot. Then, two second instar larvae of Mythimna separata were inoculated to each treatment plot. A plastic lid was put on the test container so as to prevent escape of the second instar larvae of Mythimna separata. The container was placed in a thermostat chamber of 25° C. On the fifth day, the insecticidal rate and the food intake were examined. The test was conducted in duplicate. The insecticidal rate and the food intake of a control plot were examined in the same way as in Test Example 1 except that the emulsion (I) was changed to the emulsion (II).

Aphis craccivora = assay: Test of Efficacy on Aphis craccivora (spray on black-eyed peas); conditions: 96 h, read-out: insecticidal rate
Experimental: 5 parts of the heteroaryl azole compound of the present invention, 93.6 parts of dimethylformamide, and 1.4 parts of polyoxyethylene alkyl aryl ether were mixed and dissolved to prepare emulsion (I) containing 5% of the active ingredient.
An insecticidal rate was calculated according to the following expression: Insecticidal rate (%)=(The number of dead insects/The number of tested insects)×100
Seedlings of black-eyed peas were raised in 10-cm pots. Aphis craccivora nymphs were inoculated onto primary leaves. The emulsion (I) was diluted with water such that the concentration of the compound of the present invention was 125 ppm. The dilution was sprayed to the black-eyed peas parasitized by the Aphis craccivora nymphs. The black-eyed peas were placed in a thermostat chamber having a temperature of 25° C. and a humidity of 60%. Life and death of Aphis craccivora were determined after 4 days from the spraying, and the insecticidal rate was calculated. The test was conducted in duplicate.

Plutella xylostella = assay: Test of Efficacy on Plutella xylostella (cabbage leaf dip); conditions: foliar, 72 h, cabbage leaves dipped 30 seconds, second instar larvae, after 3 days, read-out: insecticidal rate
Experimental: 5 parts of the heteroaryl azole compound of the present invention, 93.6 parts of dimethylformamide, and 1.4 parts of polyoxyethylene alkyl aryl ether were mixed and dissolved to prepare emulsion (I) containing 5% of the active ingredient. An insecticidal rate was calculated according to the following expression: Insecticidal rate (%)=(The number of dead insects/The number of tested insects)×100 The emulsion (I) was diluted with water such that the concentration of the compound of the present invention was 125 ppm. Cabbage leaves were dipped in the dilution for 30 seconds. The resulting cabbage leaves were placed in a petri dish. Five second instar larvae of Plutella xylostella were released thereto. The petri dish was placed in a thermostat chamber having a temperature of 25° C. and a humidity of 60%. Life and death were determined after 3 days from the release of the insects, and the insecticidal rate was calculated. The test was conducted in duplicate.

[1] = 125 ppm, sprayed to black-eyed peas, nymphs, after 4 days

Structure (SMILES): CCS(=O)(=O)c1cc(C(F)(F)F)cnc1-c1ncn(/C=C(\F)C(F)(F)C(F)(F)F)c1C [a-4]
- insecticidal rate or food intake as compared with the control plot (Mythimna separata): insecticidal rate of 100% for Mythimna separata or a food intake of 10% or less as compared with the control plot

Structure (SMILES): CCS(=O)(=O)c1ccc(Cl)nc1-c1ncn(-c2ccc(OC(F)(F)F)cc2)n1 [d-10]
- pest or weed control at 125 ppm (Aphis craccivora; [1]): ≥ 80%
- insecticidal rate or food intake as compared with the control plot (Mythimna separata): insecticidal rate of 100% for Mythimna separata or a food intake of 10% or less as compared with the control plot

Structure (SMILES): CCS(=O)(=O)c1cc(-c2ncccn2)cnc1-c1ncn(CC(F)(F)C(F)(F)F)c1C [c-2]
- pest or weed control at 125 ppm (Aphis craccivora; [1]): ≥ 80%
- insecticidal rate or food intake as compared with the control plot (Mythimna separata): insecticidal rate of 100% for Mythimna separata or a food intake of 10% or less as compared with the control plot

Structure (SMILES): CCS(=O)(=O)c1ccc(-n2cncn2)nc1-c1ncn(-c2ccc(OC(F)(F)F)cc2)c1C [d-27]
- pest or weed control at 125 ppm (Aphis craccivora; [1]): ≥ 80%
- insecticidal rate or food intake as compared with the control plot (Mythimna separata): insecticidal rate of 100% for Mythimna separata or a food intake of 10% or less as compared with the control plot
- pest or weed control at 125 ppm (Plutella xylostella): ≥ 80%

Structure (SMILES): CCS(=O)(=O)c1cc(-c2ccccn2)cnc1-c1ncn(-c2ccc(OC(F)(F)C(F)F)cc2)n1 [d-16]
- pest or weed control at 125 ppm (Aphis craccivora; [1]): ≥ 80%
- insecticidal rate or food intake as compared with the control plot (Mythimna separata): insecticidal rate of 100% for Mythimna separata or a food intake of 10% or less as compared with the control plot
- pest or weed control at 125 ppm (Plutella xylostella): ≥ 80%

Structure (SMILES): CCS(=O)(=O)c1cc(C2CC2)cnc1-c1ncn(CC(F)(F)C(F)(F)C(F)(F)F)c1C [c-6]
- pest or weed control at 125 ppm (Aphis craccivora; [1]): ≥ 80%
- insecticidal rate or food intake as compared with the control plot (Mythimna separata): insecticidal rate of 100% for Mythimna separata or a food intake of 10% or less as compared with the control plot

Structure (SMILES): CCS(=O)(=O)c1ccc(-n2cncn2)nc1-c1ncn(-c2ccc(OC(F)(F)F)cc2)n1 [d-11]
- pest or weed control at 125 ppm (Aphis craccivora; [1]): ≥ 80%
- insecticidal rate or food intake as compared with the control plot (Mythimna separata): insecticidal rate of 100% for Mythimna separata or a food intake of 10% or less as compared with the control plot

Structure (SMILES): CCS(=O)(=O)c1cc(-c2ccccn2)cnc1-c1ncn(-c2ccc(OC(F)(F)F)cc2)c1Br [d-23]
- pest or weed control at 125 ppm (Plutella xylostella): ≥ 80%

Structure (SMILES): CCS(=O)(=O)c1cc(C2CC2)cnc1-c1ncn(/C=C(\F)C(F)(F)F)c1C [a-14]
- insecticidal rate or food intake as compared with the control plot (Mythimna separata): insecticidal rate of 100% for Mythimna separata or a food intake of 10% or less as compared with the control plot

Structure (SMILES): CCS(=O)(=O)c1ccc(-n2cncn2)nc1-c1ncn(-c2ccc(C(F)(F)F)cn2)n1 [d-3]
- pest or weed control at 125 ppm (Aphis craccivora; [1]): ≥ 80%
- insecticidal rate or food intake as compared with the control plot (Mythimna separata): insecticidal rate of 100% for Mythimna separata or a food intake of 10% or less as compared with the control plot

Structure (SMILES): CCS(=O)(=O)c1cc(Br)cnc1-c1ncn(CC(F)(F)C(F)(F)C(F)(F)F)c1C [c-7]
- pest or weed control at 125 ppm (Aphis craccivora): ≥ 80%

Structure (SMILES): CCS(=O)(=O)c1cc(C2(C)CC2)cnc1-c1ncn(-c2ccc(OC(F)(F)F)cc2)n1 [d-14]
- pest or weed control at 125 ppm (Aphis craccivora; [1]): ≥ 80%
- insecticidal rate or food intake as compared with the control plot (Mythimna separata): insecticidal rate of 100% for Mythimna separata or a food intake of 10% or less as compared with the control plot

Structure (SMILES): CCS(=O)(=O)c1ccc(S(=O)(=O)CC)c(-c2cn(-c3ccc(OC(F)(F)F)cc3)cn2)n1 [d-21]
- pest or weed control at 125 ppm (Aphis craccivora; [1]): ≥ 80%

Structure (SMILES): CCS(=O)(=O)c1cnc(-c2ncccn2)nc1-c1ncn(-c2ccc(C(F)(F)C(F)(F)F)cc2)n1 [d-18]
- pest or weed control at 125 ppm (Aphis craccivora; [1]): ≥ 80%

Structure (SMILES): CCS(=O)(=O)c1cc(C2CC2)cnc1-c1ncn(-c2ccc(SC(F)(F)F)cc2)n1 [d-9]
- insecticidal rate or food intake as compared with the control plot (Mythimna separata): insecticidal rate of 100% for Mythimna separata or a food intake of 10% or less as compared with the control plot

Structure (SMILES): CCS(=O)(=O)c1cc(C2CC2)cnc1-c1ncn(/C=C(\F)C(F)(F)C(F)(F)F)n1 [b-10]
- insecticidal rate or food intake as compared with the control plot (Mythimna separata): insecticidal rate of 100% for Mythimna separata or a food intake of 10% or less as compared with the control plot

Structure (SMILES): CCS(=O)(=O)c1cc(Br)cnc1-c1ncn(CC(F)(F)C(F)(F)F)c1C [c-4]
- pest or weed control at 125 ppm (Aphis craccivora; [1]): ≥ 80%

Structure (SMILES): CCS(=O)(=O)c1cc(C2CC2)cnc1-c1ncn(CC(F)(F)C(F)(F)F)c1C [c-3]
- pest or weed control at 125 ppm (Aphis craccivora; [1]): ≥ 80%

Structure (SMILES): C=C(C)c1cnc(-c2ncn(-c3ccc(OC(F)(F)F)cc3)n2)c(S(=O)(=O)CC)c1 [d-13]
- insecticidal rate or food intake as compared with the control plot (Mythimna separata): insecticidal rate of 100% for Mythimna separata or a food intake of 10% or less as compared with the control plot

Structure (SMILES): CCS(=O)(=O)c1cc(-c2ccccn2)cnc1-c1ncn(CC(F)(F)C(F)(F)F)c1C [c-1, 5′-(ethylsulfonyl)-6′-(5-methyl-1-(2,2,3,3,3-pentafluoropropyl)-1H-imidazol-4-yl)-2,3′-bipyridine]
- pest or weed control at 125 ppm (Aphis craccivora; [1]): ≥ 80%
- insecticidal rate or food intake as compared with the control plot (Mythimna separata): insecticidal rate of 100% for Mythimna separata or a food intake of 10% or less as compared with the control plot

Structure (SMILES): CCS(=O)(=O)c1cc(C2CC2)cnc1-c1ncn(-c2ccc(OC(F)(F)C(F)F)cc2)n1 [d-15]
- insecticidal rate or food intake as compared with the control plot (Mythimna separata): insecticidal rate of 100% for Mythimna separata or a food intake of 10% or less as compared with the control plot
- pest or weed control at 125 ppm (Plutella xylostella): ≥ 80%

Structure (SMILES): CCS(=O)(=O)c1cc(-c2cc(F)cc(F)c2)cnc1-c1ncn(/C=C(\F)C(F)(F)C(F)(F)F)n1 [b-3]
- insecticidal rate or food intake as compared with the control plot (Mythimna separata): insecticidal rate of 100% for Mythimna separata or a food intake of 10% or less as compared with the control plot

Structure (SMILES): CCS(=O)(=O)c1cc(C2(C)CC2)cnc1-c1ncn(/C=C(\F)C(F)(F)C(F)(F)C(F)(F)F)n1 [b-22]
- insecticidal rate or food intake as compared with the control plot (Mythimna separata): insecticidal rate of 100% for Mythimna separata or a food intake of 10% or less as compared with the control plot

Structure (SMILES): CCS(=O)(=O)c1cc(C2CC2)cnc1-c1ncn(-c2ccc(C(F)(F)F)cn2)n1 [d-4, 5-cyclopropyl-3-(ethylsulfonyl)-2-(1-(5-(trifluoromethyl)pyridin-2-yl)-1H-1,2,4-triazol-3-yl)pyridine]
- pest or weed control at 125 ppm (Aphis craccivora; [1]): ≥ 80%
- insecticidal rate or food intake as compared with the control plot (Mythimna separata): insecticidal rate of 100% for Mythimna separata or a food intake of 10% or less as compared with the control plot
- pest or weed control at 125 ppm (Plutella xylostella): ≥ 80%

Structure (SMILES): CCS(=O)(=O)c1cc(-c2ncccn2)cnc1-c1ncn(CC(F)(F)C(F)(F)C(F)(F)C(F)F)c1C [a-15]
- insecticidal rate or food intake as compared with the control plot (Mythimna separata): insecticidal rate of 100% for Mythimna separata or a food intake of 10% or less as compared with the control plot

Structure (SMILES): CCS(=O)(=O)c1cc(Br)cnc1-c1ncn(/C=C(\F)C(F)(F)C(F)(F)C(F)F)n1 [b-20]
- insecticidal rate or food intake as compared with the control plot (Mythimna separata): insecticidal rate of 100% for Mythimna separata or a food intake of 10% or less as compared with the control plot

Structure (SMILES): CCS(=O)(=O)c1cc(-c2ncccn2)cnc1-c1ncn(-c2ccc(C(F)(F)F)cn2)n1 [d-5]
- insecticidal rate or food intake as compared with the control plot (Mythimna separata): insecticidal rate of 100% for Mythimna separata or a food intake of 10% or less as compared with the control plot
- pest or weed control at 125 ppm (Plutella xylostella): ≥ 80%

Structure (SMILES): CCS(=O)(=O)c1cc(-c2ncccn2)cnc1-c1ncn(/C=C(\F)C(F)(F)C(F)(F)F)n1 [b-12]
- insecticidal rate or food intake as compared with the control plot (Mythimna separata): insecticidal rate of 100% for Mythimna separata or a food intake of 10% or less as compared with the control plot

Structure (SMILES): CCS(=O)(=O)c1cc(C(F)(F)F)cnc1-c1ncn(CC(F)(F)C(F)(F)C(F)(F)F)c1C [a-5]
- insecticidal rate or food intake as compared with the control plot (Mythimna separata): insecticidal rate of 100% for Mythimna separata or a food intake of 10% or less as compared with the control plot
